Consider 9 compounds from article PMC6230509 (Neuropharmacology, 2018).

The target of one assay is 5-HT2A receptor. The conditions noted are these: read-out: Ki vs. [3H]ketanserin, ref Stevenson et al. 2000; cited from earlier work.
Assay [1] relates to head twitch response (5-HT2A receptor-mediated). As to the kind of experiment: Head twitch response. The format is in vivo, C57BL/6J mice. The conditions noted are these: for activity in the HTR assay (in words): C57BL/6J mice, within the dose range tested; for ED50: Mus musculus, ip.
Assay [2] concerns DOM discriminative stimulus. The settings on record: ref Gatch et al. 2017; cited from earlier work.
The test system of assay [3] is recombinant human 5-HT2A receptors. The conditions noted are these: ref Arunotayanun et al. 2013; cited from earlier work.
For assay [4] the following is noted: humans, ref Shulgin and Shulgin 2004, cited from earlier work.
Assay [5] relates to 5-MeO-DMT discriminative stimulus. The settings on record: ref Glennon et al. 1980a; cited from earlier work.
The target of the next assay is rat 5-HT2A receptor. The settings on record: read-out: Ki, rat 5-HT2A receptor; [3H]ketanserin; ref Gallaher et al. (1993); cited from earlier work.
Setting [6] is: read-out: ED50 (95% CI) (mg/kg).
Setting [7] is: read-out: ED50 (95% CI) (μmol/kg).
Where [8] appears, read: 0.875 mg/kg IP, duration 30 min.
Where [9] appears, read: HTR, IP, male C57BL/6J mice, analysis block 5–30 min depending on drug.

Like-named read-outs stand apart in the source and are kept apart here.

For the compound `CCN(CC)CCc1c(-c2ccccc2)[nH]c2ccccc12` [2-phenyl-N,N-diethyltryptamine], on 5-HT2A receptor, the Ki was 2.8 nM.
`CN(C)CCc1c(-c2ccccc2)[nH]c2ccccc12` [2-phenyl-N,N-dimethyltryptamine]: the Ki on 5-HT2A receptor is 4.4 nM.
On to `C=CCN(CC=C)CCc1c[nH]c2ccc(Br)cc12` [5-Br-DALT, 5-bromo-N,N-diallyltryptamine], for which the “HTR Counts (mean ± SEM)” value turned out to be 5.0 ± 0.3 in assay [1] (3.5 mg/kg IP, duration 30 min); 10.8 ± 2.7 in assay [1] (7 mg/kg IP, duration 30 min); 8.6 ± 2.7 in assay [1] (14 mg/kg IP, duration 30 min); 1.4 ± 0.4 in assay [1] (28 mg/kg IP, duration 30 min); 1.4 ± 1.4 in assay [1] (56 mg/kg IP, duration 30 min). In addition, the “activity in the HTR assay (in words)” value in assay [1] (IP) was “active”. The ED50 in assay [1] (setting [6]) was found to be 4.8 mg/kg; in assay [1] (setting [7]) it was 13.5 µmol/kg.
In the case of `C=CCN(CC=C)CCc1c[nH]c2ccc(F)cc12` [5-F-DALT, 5-fluoro-N,N-diallyltryptamine], the “HTR Counts (mean ± SEM)” value worked out at 9.8 ± 2.6 in assay [1] (setting [8]); 21.0 ± 5.7 in assay [1] (1.75 mg/kg IP, duration 30 min); 36.0 ± 6.8 in assay [1] (3.5 mg/kg IP, duration 30 min); 26.8 ± 7.1 in assay [1] (7 mg/kg IP, duration 30 min); 21.0 ± 4.0 in assay [1] (14 mg/kg IP, duration 30 min). Also, the “activity in the HTR assay (in words)” value in assay [1] (IP) was “active”. The results for the ED50 in assay [1] (setting [6]) and in assay [1] (setting [7]) were 1.58 mg/kg and 5.4 µmol/kg, respectively.
As for `C=CCN(CC=C)CCc1c[nH]c2ccc(OC)cc12` [5-MeO-DALT, 5-methoxy-N,N-diallyltryptamine], the “substitution in rats trained to discriminate DOM” value in assay [2] is “full substitution”. Besides, the “HTR Counts (mean ± SEM)” value in assay [1] (1.75 mg/kg IP, duration 20 min) is 6.6 ± 1.0; in assay [1] (3.5 mg/kg IP, duration 20 min) it was 19.8 ± 1.5; in assay [1] (7 mg/kg IP, duration 20 min), 8.8 ± 2.6; in assay [1] (14 mg/kg IP, duration 20 min) it was 8.0 ± 4.9. The “activity in the HTR assay (in words)” value in assay [1] (IP) is “active”. Besides, the ED50 in assay [1] (setting [6]) was 2.25 mg/kg; in assay [1] (setting [7]) it was 7.3 µmol/kg. For the same compound, in assay [3], the “functional activity at recombinant human 5-HT2A receptors” value is “agonist”. Besides, the “duration of psychoactive effects” value in assay [4] (oral 12–20 mg) was 2 to 4 h. In addition, the “oral doses producing psychoactive effects” value in assay [4] (oral) is 12 to 20 mg.
Take `CCc1cccc2c(CCN(C)C)c[nH]c12` [7-Ethyl-DMT]: the “substitution in rats trained to discriminate 5-MeO-DMT from vehicle” value in assay [5] is given as “partial substitution”.
As for `C=CCN(CC=C)CCc1c[nH]c2ccccc12` [DALT, N,N-diallyltryptamine], the “HTR Counts (mean ± SEM)” value in assay [1] (setting [8]) turned out to be 8.2 ± 2.8; in assay [1] (1.75 mg/kg IP, duration 30 min), 6.8 ± 2.6; in assay [1] (3.5 mg/kg IP, duration 30 min), 14.2 ± 4.3; in assay [1] (7 mg/kg IP, duration 30 min), 21.8 ± 4.4; in assay [1] (14 mg/kg IP, duration 30 min) it was 20.6 ± 2.7. Besides, in assay [1] (IP), the “activity in the HTR assay (in words)” value is “active”. The “ED50 (95% CI) (mg/kg)” value in assay [1] (setting [9]) is reported as 3.42 (2.44–4.79) mg/kg. The “ED50 (95% CI) (μmol/kg)” value in assay [1] (setting [9]) is 12.3 (8.8–17.3) μmol/kg.
For the compound `CN(C)CCc1c[nH]c2ccc(O)cc12` [bufotenine], on rat 5-HT2A receptor, the Ki was 520 nM.
Regarding `CN(C)CCc1c[nH]c2cccc(O)c12` [psilocin, 4-hydroxy-DMT], at rat 5-HT2A receptor, the Ki was 5100 nM.
